Assay results reported in patent US10246515B2, “Methods of treating hedgehog-related diseases with an anti-LGR5 antibody” (Genentech, Inc., priority 2013, dated 2019).

Assays:
[1] = system: Superficial Basal Cell Carcinoma (BCC); assay: DT cell ablation in Superficial Basal Cell Carcinoma (BCC), K14CreER/+; p53loxP/loxP; PtchloxP/loxP; LGR5DTReGFP/+ mice; H&E and immunofluorescent staining; format: in vivo; settings: 75 mg/kg GDC-0449 po BID for 38 days with Diphtheria Toxin 50 ug/kg every other day for the final 8 days, Lgr5DTR.EGFP mice (FIG. 4 A-B)
Procedure: K14^CreER/+; p53^loxP/loxP; Ptch^loxP/loxP; LGR5^DTReGFP/+ mice were generated by breeding p53^loxP/loxPPtch^loxP/loxP; LGR5^DTReGFP/+ mice with p53^loxP/loxP; Ptch^loxP/+; K14^CreER/−. Animals showing telltale signs of Superficial BCC disease such as loss of fur, scruffy coat, thickening of the ears or tail skin were put on study. Animals were typically placed on study at 7 weeks of age. K14^CreER/+; p53^loxP/loxP; Ptch^loxP/loxP; LGR5^DTReGFP/+ mice were treated with the regimes as follows. To test the effects of DT treatments on residual superficial BCC, mice were treated Vismodegib (GDC-0449) po bid at 75 mg/kg for 38 days with concomitant with Diphtheria Toxin (DT) at 50 ug/kg every other day for the final 8 days starting at […]. Control mice were treated with Vismodegib (GDC-0449) po bid at 75 mg/kg for 38 days concomitant with 200 uL IP saline for the final 8 days of treatment. In addition, animals showing signs of disease (listed above) were treated with saline or DT alone at 50 ug/kg every other day for 5 days to test the effect of single DT treatments.
Harvested skin from treated animals was processed for Hematoxylin and Eosin (H&E) staining using established protocols. Alternatively, backskin from treated animals was fixed over night in 4% paraformaldehyde/PBS solution, washed, incubated in 30% sucrose/PBS solution overnight, and embedded in frozen OCT. […]

[2] = system: basal cell carcinoma; assay: Basal cell carcinoma in K14-CreER; Ptch1fl/fl; p53fl/fl mice treated with GDC-0449; format: in vivo
Procedure: Harvested skin from treated animals was processed for Hematoxylin and Eosin (H&E) staining using established protocols. Alternatively, backskin from treated animals was fixed over night in 4% paraformaldehyde/PBS solution, washed, incubated in 30% sucrose/PBS solution overnight, and embedded in frozen OCT. Sections were then cut at 8 um from the frozen blocks and stained for the apoptosis marker cleaved caspase 3 (1:1000), GFP (1:1000), or Keratin 5 (1:1000). Sections were counterstained with DAPI.

Question: What does the source list for CS(=O)(=O)c1ccc(C(=O)Nc2ccc(Cl)c(-c3ccccn3)c2)c(Cl)c1 [GDC-0449, 2-chloro-N-[4-chloro-3-(pyridin-2-yl)phenyl]-4-(methylsulfonyl)benzamide]?
Answer: tumor regression [1]: tumor regression; tumor regression ([2]; K14-CreER, Ptch1fl/fl, p53fl/fl mice, compared to untreated control mice (FIG. 2)): extensive tumor regression; residual disease ([2]; after 75 mg/kg GDC-0449 po BID for 56 days (FIG. 2 C-D)): still observed
